Measurements published in ChEMBL document CHEMBL1201862, “PubChem BioAssay data set” (2004).
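Tested at 5 concentrations; 48 h exposure; 96-well plates; endpoints linearly interpolated, else capped at highest concentration. Abbreviation: GI50, concentration required for 50% inhibition of growth.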 Calls of active or inactive are those of the source. Cut-off read from the data, not from the text of the source: active = GI50 up to about 1.1 µM and inactive = higher.

Tests used:
Test in all cases: NCI anticancer screen, dose series, 48 h
DMS-114 = tested on: DMS-114
OVCAR-3 = tested on: OVCAR-3
OVCAR-5 = tested on: OVCAR-5
OVCAR-8 = tested on: OVCAR-8
RPMI-8226 = tested on: RPMI-8226
SNB-19 = tested on: SNB-19
SNB-78 = tested on: SNB-78
A498 = tested on: A498
A549 = tested on: A549
CAKI-1 = tested on: CAKI-1
CCRF-CEM = tested on: CCRF-CEM
COLO 205 = tested on: COLO 205
DMS-273 = tested on: DMS-273
HL-60 = tested on: HL-60
HOP-18 = tested on: HOP-18
HOP-92 = tested on: HOP-92
IGROV-1 = tested on: IGROV-1
K562 = tested on: K562
LOX IMVI = tested on: LOX IMVI
MOLT-4 = tested on: MOLT-4
NCI-H522 = tested on: NCI-H522
RXF 393 = tested on: RXF 393
SF-295 = tested on: SF-295
SK-MEL-28 = tested on: SK-MEL-28
SK-MEL-5 = tested on: SK-MEL-5
SK-OV-3 = tested on: SK-OV-3
SR = tested on: SR
SW-620 = tested on: SW-620
UO-31 = tested on: UO-31
ACHN = tested on: ACHN
DLD-1 = tested on: DLD-1
EKVX = tested on: EKVX
HOP-62 = tested on: HOP-62
HT-29 = tested on: HT-29
KM-20L2 = tested on: KM-20L2
KM12 = tested on: KM12
NCI-H226 = tested on: NCI-H226
NCI-H23 = tested on: NCI-H23
OVCAR-4 = tested on: OVCAR-4
SF-539 = tested on: SF-539
SN12C = tested on: SN12C
SNB-75 = tested on: SNB-75
TK-10 = tested on: TK-10
UACC-257 = tested on: UACC-257
UACC-62 = tested on: UACC-62

Measured: GI50

COc1cc(Cc2c(C)cc(OC)c3[nH]c4ccccc4c23)cc2c1[nH]c1ccccc12
inactive: DMS-114 10.5 µM | OVCAR-3 5.42 µM | OVCAR-5 4.99 µM | OVCAR-8 4.57 µM | RPMI-8226 9.95 µM | SNB-19 8.85 µM | SNB-78 5.79 µM

Cc1ccc2nc3c(Cl)c(C)c(=O)cc-3sc2c1
inactive: A498 > 100 µM | A549 70.5 µM | CAKI-1 > 10 µM | CCRF-CEM 7.18 µM | COLO 205 > 10 µM | DMS-273 76 µM | HL-60 26.4 µM | HOP-18 > 10 µM | HOP-92 64 µM | IGROV-1 > 10 µM | K562 26.9 µM | LOX IMVI 42.1 µM | MOLT-4 10.7 µM | NCI-H522 35.3 µM | OVCAR-8 51.1 µM | RPMI-8226 23 µM | RXF 393 21.5 µM | SF-295 41.2 µM | SK-MEL-28 > 10 µM | SK-MEL-5 60.3 µM | SK-OV-3 > 10 µM | SR > 10 µM | SW-620 83.4 µM | UO-31 52.5 µM

COC(=O)/C(=N\NC(C)(C)C)C(C(=O)C(=O)Nc1cc(C)ccc1C)c1nc2ccccc2nc1O (stereo not given)
inactive: A498 > 100 µM | ACHN > 100 µM | CAKI-1 > 100 µM | CCRF-CEM > 100 µM | COLO 205 > 100 µM | DLD-1 > 100 µM | EKVX > 100 µM | HL-60 > 100 µM | HOP-62 > 100 µM | HOP-92 > 100 µM | HT-29 > 100 µM | IGROV-1 > 100 µM | K562 > 100 µM | KM-20L2 > 100 µM | KM12 > 100 µM | LOX IMVI > 100 µM | MOLT-4 > 100 µM | NCI-H226 > 100 µM | NCI-H23 > 100 µM | OVCAR-4 > 100 µM | OVCAR-5 > 100 µM | OVCAR-8 > 100 µM | RPMI-8226 > 100 µM | SF-295 > 100 µM | SF-539 > 100 µM | SK-MEL-5 > 100 µM | SN12C > 100 µM | SNB-19 > 100 µM | SNB-75 > 100 µM | SR > 100 µM | SW-620 > 100 µM | TK-10 > 100 µM | UACC-257 > 100 µM | UACC-62 > 100 µM
